# Source: article PMC11882969 (Nature Communications, 2025)
# Values joined by “and” are separate entries in the source; they are usually repeats but may differ in a detail not shown here. Equal values may be shown once. Read-outs that look alike come from different tables or passages of the source.
# Assays:
# CB1 (rCB1) [1] = biological target: T1, CB1 (rCB1) (Rattus norvegicus, UniProt P20272); experiment: Radioligand competition binding, [3H]-CP-55,940, rat brain membranes
# CB1 (rCB1) [2] = biological target: T1, CB1 (rCB1); experiment: Single-point radioligand displacement screen; format: binding; conditions: 10 µM, 1 µM or 300 nM by cell colour (not visible)
# hCB1 = hCB1 (Homo sapiens, UniProt P21554); experiment: bioSensAll ebBRET signaling profiling, hCB1; format: cell-based; set-up: host or cells: HEK293SL cells, transient PEI transfection; conditions: for Gi1 hCB1 response: Gi1 biosensor; for Gi1 hCB1 / GoB hCB1: single replicate values, FigS6a; for EC50: read-out: EC50 [95% CI]; for Emax: normalized to CP-55,940
# Sequence of hCB1 (P21554 whole entry): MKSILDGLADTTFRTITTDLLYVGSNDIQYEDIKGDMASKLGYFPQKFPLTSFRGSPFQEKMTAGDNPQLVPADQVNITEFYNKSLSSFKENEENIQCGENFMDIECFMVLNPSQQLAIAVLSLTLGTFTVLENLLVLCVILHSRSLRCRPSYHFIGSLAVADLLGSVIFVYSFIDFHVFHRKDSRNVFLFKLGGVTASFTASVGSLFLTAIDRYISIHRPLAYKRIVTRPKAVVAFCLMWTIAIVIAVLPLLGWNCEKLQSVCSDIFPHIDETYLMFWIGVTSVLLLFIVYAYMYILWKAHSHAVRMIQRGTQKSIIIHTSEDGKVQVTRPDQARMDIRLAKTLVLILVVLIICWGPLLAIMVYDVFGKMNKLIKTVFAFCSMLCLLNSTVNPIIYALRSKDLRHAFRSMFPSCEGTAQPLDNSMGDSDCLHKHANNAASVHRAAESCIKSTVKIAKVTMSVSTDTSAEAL
# T1 sequence (P20272 whole entry): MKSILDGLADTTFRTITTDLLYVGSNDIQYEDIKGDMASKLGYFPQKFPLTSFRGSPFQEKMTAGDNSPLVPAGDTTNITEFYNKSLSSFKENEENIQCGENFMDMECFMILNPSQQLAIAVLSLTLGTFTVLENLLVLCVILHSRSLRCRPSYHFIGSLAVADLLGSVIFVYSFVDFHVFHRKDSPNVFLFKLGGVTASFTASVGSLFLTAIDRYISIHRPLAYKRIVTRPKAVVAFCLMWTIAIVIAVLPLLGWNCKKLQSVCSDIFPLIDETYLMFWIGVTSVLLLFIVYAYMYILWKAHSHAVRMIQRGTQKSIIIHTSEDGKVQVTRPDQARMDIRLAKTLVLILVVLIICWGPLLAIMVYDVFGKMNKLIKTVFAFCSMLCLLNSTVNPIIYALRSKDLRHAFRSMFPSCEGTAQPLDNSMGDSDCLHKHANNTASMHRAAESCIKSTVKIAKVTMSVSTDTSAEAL
structure (smiles),measurement,setting,value
Cc1cc(C(=O)NC(c2ccccc2)c2ccco2)nn1-c1cccc(C#N)c1 (stereo not drawn) [‘12565],pKi [95% CI],CB1 (rCB1) [1]; rCB1,6.5 [6.3 – 6.7]
same,Ki,"CB1 (rCB1) [1]; read-out: Ki [95% CI], rCB1, [3H]-CP-55,940",0.301 µM
same,"% 1H-CP-55,940 displacement (mean) from single point screen",CB1 (rCB1) [2],61.12%
same,Gi1 hCB1 response,hCB1; Log [Compound] (M) -4.22186,51.3091
same,Gi1 hCB1 response,hCB1; Log [Compound] (M) -4.63927,50.5034
same,Gi1 hCB1 response,hCB1; Log [Compound] (M) -5.05788,44.5052
same,Gi1 hCB1 response,hCB1; Log [Compound] (M) -5.47381,43.9457
same,Gi1 hCB1 response,hCB1; Log [Compound] (M) -5.89285,42.849
same,Gi1 hCB1 response,hCB1; Log [Compound] (M) -6.31878,33.2921
same,Gi1 hCB1 response,hCB1; Log [Compound] (M) -6.72585,46.4524
same,Gi1 hCB1 response,hCB1; Log [Compound] (M) -7.14267,19.6618
same,Gi1 hCB1 response,hCB1; Log [Compound] (M) -7.55284,13.0593
same,Gi1 hCB1 response,hCB1; Log [Compound] (M) -8,11.2688
same,Gi1 hCB1 response,hCB1; Log [Compound] (M) -8.22186,-3.794
same,Gi1 hCB1 response,hCB1; Log [Compound] (M) -8.39794,-8.2031
same,Gi1 hCB1 response,hCB1; Log [Compound] (M) -8.68787,-4.197
same,Gi1 hCB1 response,hCB1; Log [Compound] (M) -9.15521,-12.5675
same,Gi1 hCB1 response,hCB1; Log [Compound] (M) -9.61989,-10.195
same,Gi1 hCB1 response,hCB1; Log [Compound] (M) -10.0969,-5.294
same,Gi1 hCB1 response,hCB1; Log [Compound] (M) -10.5529,14.9617
same,Gi1 hCB1 response,hCB1; Log [Compound] (M) -11.0177,-2.317
same,Gi1 hCB1 response,hCB1; Log [Compound] (M) -11.4949,8.247
same,Gi1 hCB1 response,hCB1; Log [Compound] (M) -11.9208,-0.5263
same,Gi1 hCB1 response,hCB1; Log [Compound] (M) -12.3979,-10.9113
same,Gi1 hCB1 response,hCB1; Log [Compound] (M) -12.8861,-6.234
same,Gi1 hCB1 response,"hCB1; Log [Compound] (M) -13, individual replicate values",1.98 and -17.5585
same,Gi1 hCB1,hCB1; Log [Compound] (M) -4.22186,25.3414
same,GoB hCB1,hCB1; Log [Compound] (M) -4.22186,15.9048
same,Gi1 hCB1,hCB1; Log [Compound] (M) -4.63927,29.288
same,GoB hCB1,hCB1; Log [Compound] (M) -4.63927,18.0268
same,Gi1 hCB1,hCB1; Log [Compound] (M) -5.05788,28.8564
same,GoB hCB1,hCB1; Log [Compound] (M) -5.05788,28.8528
same,Gi1 hCB1,hCB1; Log [Compound] (M) -5.47381,27.1451
same,GoB hCB1,hCB1; Log [Compound] (M) -5.47381,28.2953
same,Gi1 hCB1,hCB1; Log [Compound] (M) -5.89285,25.0947
same,GoB hCB1,hCB1; Log [Compound] (M) -5.89285,22.0012
same,Gi1 hCB1,hCB1; Log [Compound] (M) -6.31878,21.0402
same,GoB hCB1,hCB1; Log [Compound] (M) -6.31878,26.4251
same,Gi1 hCB1,hCB1; Log [Compound] (M) -6.72585,17.7873
same,GoB hCB1,hCB1; Log [Compound] (M) -6.72585,22.6665
same,Gi1 hCB1,hCB1; Log [Compound] (M) -7.14267,12.2681
same,GoB hCB1,hCB1; Log [Compound] (M) -7.14267,15.689
same,Gi1 hCB1,hCB1; Log [Compound] (M) -7.55284,6.888
same,GoB hCB1,hCB1; Log [Compound] (M) -7.55284,4.557
same,Gi1 hCB1,hCB1; Log [Compound] (M) -8,2.772
same,GoB hCB1,hCB1; Log [Compound] (M) -8,1.9857
same,Gi1 hCB1,hCB1; Log [Compound] (M) -8.22186,1.492
same,GoB hCB1,hCB1; Log [Compound] (M) -8.22186,-4.416
same,Gi1 hCB1,hCB1; Log [Compound] (M) -8.39794,0.9061
same,GoB hCB1,hCB1; Log [Compound] (M) -8.39794,-0.9096
same,Gi1 hCB1,hCB1; Log [Compound] (M) -8.68787,1.4611
same,GoB hCB1,hCB1; Log [Compound] (M) -8.68787,-4.902
same,Gi1 hCB1,hCB1; Log [Compound] (M) -9.15521,0.4436
same,GoB hCB1,hCB1; Log [Compound] (M) -9.15521,-2.744
same,Gi1 hCB1,hCB1; Log [Compound] (M) -9.61989,-1.406
same,GoB hCB1,hCB1; Log [Compound] (M) -9.61989,-3.949
same,Gi1 hCB1,hCB1; Log [Compound] (M) -10.0969,0.8444
same,GoB hCB1,hCB1; Log [Compound] (M) -10.0969,-5.531
same,Gi1 hCB1,hCB1; Log [Compound] (M) -10.5529,-0.3889
same,GoB hCB1,hCB1; Log [Compound] (M) -10.5529,0.1334
same,Gi1 hCB1,hCB1; Log [Compound] (M) -11.0177,-1.067
same,GoB hCB1,hCB1; Log [Compound] (M) -11.0177,0.2053
same,Gi1 hCB1,hCB1; Log [Compound] (M) -11.4949,0.2894
same,GoB hCB1,hCB1; Log [Compound] (M) -11.4949,-1.809
same,Gi1 hCB1,hCB1; Log [Compound] (M) -11.9208,-1.221
same,GoB hCB1,hCB1; Log [Compound] (M) -11.9208,-1.251
same,Gi1 hCB1,hCB1; Log [Compound] (M) -12.3979,0.4282
same,GoB hCB1,hCB1; Log [Compound] (M) -12.3979,0.1334
same,Gi1 hCB1,hCB1; Log [Compound] (M) -12.8861,1.43
same,GoB hCB1,hCB1; Log [Compound] (M) -12.8861,-3.211
same,Gi1 hCB1,hCB1; Log [Compound] (M) -13,1.507 and -0.6201
same,GoB hCB1,hCB1; Log [Compound] (M) -13,-3.409 and -2.942
same,pEC50 [95% CI],hCB1; hCB1 Gi1,7.0 [6.9 – 7.1]
same,pEC50 [95% CI],hCB1; hCB1 GoB,7.4 [7.1 – 7.6]
same,pEC50 [95% CI],hCB1; hCB1 Gz,7.3 [6.9 – 7.7]
same,EC50,hCB1; hCB1 Gi1,0.104 µM
same,EC50,hCB1; hCB1 GoB,0.0448 µM
same,EC50,hCB1; hCB1 Gz,0.0546 µM
same,Emax,"hCB1; read-out: Emax [95% CI], hCB1 Gi1",28%
same,Emax,"hCB1; read-out: Emax [95% CI], hCB1 GoB",25%
same,Emax,"hCB1; read-out: Emax [95% CI], hCB1 Gz",51%
